Laboratory results from the supplement of paper PMC4862054.

What was measured:
Settings in all cases: 72 h
BT-474 = test system: BT-474
In short: (§1)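 For viability and cell death testing, 384-well plates carried compound at 5 concentrations in 10-fold steps over a compound-specific 10,000-fold range, and breast cancer cell lines were seeded in 20 µl suspension. After 72 h incubation, cell death was read by CellTox Green fluorescence (485/520 nm) before viability was read by CellTiter-Glo luminescence. EC50 was fitted from the dose-response curves and censored at the top concentration. Normalisation on each plate was to 0.1 % DMSO and a positive kill control.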

BT-549 [1] = test system: BT-549
In short: as §1

CAL-120 [2] = test system: CAL-120
In short: as §1

CAL-51 [3] = test system: CAL-51
In short: as §1

CAL-85-1 [4] = test system: CAL-85-1
In short: as §1

DU-4475 [5] = test system: DU-4475
In short: as §1

HCC1143 [6] = test system: HCC1143
In short: as §1

HCC1599 [7] = test system: HCC1599
In short: as §1

HCC1937 = test system: HCC1937
In short: as §1

Hs578T = test system: Hs578T
In short: as §1

MCF-10A = test system: MCF-10A
In short: as §1

MDA-MB-231 = test system: MDA-MB-231
In short: as §1

MDA-MB-436 [8] = test system: MDA-MB-436
In short: as §1

MDA-MB-453 [9] = test system: MDA-MB-453
In short: as §1

MDA-MB-468 = test system: MDA-MB-468
In short: as §1

MFM-223 [10] = test system: MFM-223
In short: as §1

SK-BR-3 = test system: SK-BR-3
In short: as §1

CAL-148 = test system: CAL-148
In short: (§2)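 After 72 h on 384-well plates pre-loaded with compound in 5 µl medium, breast cancer cell lines seeded in 20 µl were assayed for viability with 2.5 µl CellTiter-Blue at 37 °C for 2 h, read at 560/590 nm. Each plate was quality-checked by Z'-factor and normalised to vehicle and a positive kill control. EC50 comes from the fitted percent-inhibition dose-response curve, censored at the top concentration, and rows scoring zero for drug sensitivity were left out.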

CAL-51 [11] = test system: CAL-51; remark: listed apart in the source
In short: as §2

CAL-85-1 [12] = test system: CAL-85-1; remark: listed apart in the source
In short: as §2

DU-4475 [13] = test system: DU-4475; remark: listed apart in the source
In short: as §2

HDQ-P1 = test system: HDQ-P1
In short: as §2

MDA-MB-453 [14] = test system: MDA-MB-453; remark: listed apart in the source
In short: as §2

BT-549 [15] = test system: BT-549; remark: listed apart in the source
In short: as §2

CAL-120 [16] = test system: CAL-120; remark: listed apart in the source
In short: as §2

HCC1143 [17] = test system: HCC1143; remark: listed apart in the source
In short: as §2

HCC1599 [18] = test system: HCC1599; remark: listed apart in the source
In short: as §2

MDA-MB-436 [19] = test system: MDA-MB-436; remark: listed apart in the source
In short: as §2

MFM-223 [20] = test system: MFM-223; remark: listed apart in the source
In short: as §2

CAL-85-1 [21] = test system: CAL-85-1; remark: listed apart in the source
Description: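 Drug sensitivity and resistance testing (DSRT) of breast cancer cell lines in 384-well plates, 5 concentrations in 10-fold dilutions over a compound-specific 10,000-fold range. After 72 h, cytotoxicity was read by CellTox Green fluorescence and viability by CellTiter-Glo luminescence (multiplexed), normalised to DMSO and benzethonium chloride controls. EC50 is the inflection point of the fitted dose-response curve (bottom asymptote free, so it can be relative for partial curves) and is censored at the highest tested concentration. Rows with DSS 0 (no meaningful response) were excluded.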

Compound	EC50, CellTiter-Glo (BT-474) [nM]	EC50, CellTiter-Glo (BT-549 [1]) [nM]	EC50, CellTiter-Glo (CAL-120 [2]) [nM]	EC50, CellTiter-Glo (CAL-51 [3]) [nM]	EC50, CellTiter-Glo (CAL-85-1 [4]) [nM]	EC50, CellTiter-Glo (DU-4475 [5]) [nM]	EC50, CellTiter-Glo (HCC1143 [6]) [nM]	EC50, CellTiter-Glo (HCC1599 [7]) [nM]	EC50, CellTiter-Glo (HCC1937) [nM]	EC50, CellTiter-Glo (Hs578T) [nM]	EC50, CellTiter-Glo (MCF-10A) [nM]	EC50, CellTiter-Glo (MDA-MB-231) [nM]	EC50, CellTiter-Glo (MDA-MB-436 [8]) [nM]	EC50, CellTiter-Glo (MDA-MB-453 [9]) [nM]	EC50, CellTiter-Glo (MDA-MB-468) [nM]	EC50, CellTiter-Glo (MFM-223 [10]) [nM]	EC50, CellTiter-Glo (SK-BR-3) [nM]	EC50, CellTiter-Blue viability (CAL-148) [nM]	EC50, CellTiter-Blue viability (CAL-51 [11]) [nM]	EC50, CellTiter-Blue viability (CAL-85-1 [12]) [nM]	EC50, CellTiter-Blue viability (DU-4475 [13]) [nM]	EC50, CellTiter-Blue viability (HDQ-P1) [nM]	EC50, CellTiter-Blue viability (MDA-MB-453 [14]) [nM]	EC50, CellTiter-Blue viability (BT-549 [15]) [nM]	EC50, CellTiter-Blue viability (CAL-120 [16]) [nM]	EC50, CellTiter-Blue viability (HCC1143 [17]) [nM]	EC50, CellTiter-Blue viability (HCC1599 [18]) [nM]	EC50, CellTiter-Blue viability (MDA-MB-436 [19]) [nM]	EC50, CellTiter-Blue viability (MFM-223 [20]) [nM]	EC50, CellTox Green (CAL-85-1 [21]) [nM]
COc1ccc(-c2cc3c(C)nc(N)nc3n([C@H]3CC[C@H](OCCO)CC3)c2=O)cn1	162	186	123	105	229	756	258	402	444	238	122	189	181	115	208	261	23.8	246	140	301	610	66.9	72.8	196	193	418	121	234	180	4090
Cn1cc(CNCC2CCN(c3ncc(C(=O)NO)cn3)CC2)c2ccccc21	–	–	–	–	–	–	–	–	–	–	–	–	–	–	–	–	–	11.9	62.1	17.2	14.3	18.2	4.36	146	13.3	18.6	21.9	279	33.1	–
O=C(NC[C@H](O)CO)c1ccncc1Nc1ccc(I)cc1F	–	–	–	–	–	–	–	–	–	–	–	–	–	–	–	–	–	9.85	663	1660	11.7	161	4980	–	421	7.91	756	–	–	–
CC/C(=C(\c1ccc(O)cc1)c1ccc(OCCN(C)C)cc1)c1ccccc1 [4-hydroxytamoxifen]	–	1900	3010	–	3340	–	–	–	5190	–	–	3300	7820	6910	3660	8810	5720	–	–	–	–	–	–	–	–	–	–	–	–	7760
O=C(Nc1c[nH]nc1-c1nc2ccc(CN3CCOCC3)cc2[nH]1)NC1CC1 [AT9283]	74.7	406	146	2.81	–	149	121	–	–	157	102	125	–	–	28.4	191	933	1370	555	901	109	771	245	798	144	604	2120	998	886	–
COc1cc(CCc2cc(NC(=O)c3ccc(N4CC(C)NC(C)C4)cc3)n[nH]2)cc(OC)c1 (stereo not drawn) [AZD4547]	–	> 1000	68.8	–	–	–	–	–	–	–	91.2	–	–	–	–	5.91	–	632	548	529	536	–	310	–	–	–	270	–	46.6	–
CC(=O)OC[C@H]1O[C@@H]([S-])[C@H](OC(C)=O)[C@@H](OC(C)=O)[C@@H]1OC(C)=O.CCP(CC)CC.[Au+] [Auranofin]	2390	386	2490	199	723	1870	559	2110	552	1020	1630	1010	560	612	140	1460	1730	–	–	–	–	–	–	–	–	–	–	–	–	917
CCC/C=C/C=C/C(=O)O[C@H]1/C(=C/C(=O)OC)C[C@H]2C[C@H]([C@@H](C)O)OC(=O)C[C@H](O)C[C@@H]3C[C@H](OC(C)=O)C(C)(C)[C@](O)(C[C@@H]4C/C(=C/C(=O)OC)C[C@H](/C=C/C(C)(C)[C@]1(O)O2)O4)O3 [Bryostatin 1]	–	> 100	–	0.32	–	–	–	–	–	1.41	–	–	–	–	–	–	0.1	> 100	–	> 100	–	–	–	–	–	–	> 100	–	–	–
CO[C@@H](C(=O)N1Cc2[nH]nc(NC(=O)c3ccc(N4CCN(C)CC4)cc3)c2C1)c1ccccc1 [Danusertib]	912	882	2860	780	–	1530	8380	–	–	4060	628	2480	1090	–	25.2	86.5	–	21.6	348	435	538	427	40.9	1130	335	2290	38.1	1480	–	–
Cc1nc(Nc2ncc(C(=O)Nc3c(C)cccc3Cl)s2)cc(N2CCN(CCO)CC2)n1 [Dasatinib]	14	40.6	36.6	12.7	79.4	–	29.5	–	54.7	88.7	16.4	16.4	–	–	28.5	–	–	–	22.2	83.9	–	12.4	–	58.5	56.3	34.5	–	78.5	427	108
O=S(=O)(c1cccc2cnccc12)N1CCCNCC1 [Fasudil]	–	24400	–	–	–	> 50000	–	–	–	> 50000	–	–	–	27400	–	–	–	–	–	–	–	–	> 10000	–	–	–	–	–	1690	–
CS(=O)(=O)N1CCN(Cc2cc3nc(-c4cccc5[nH]ncc45)nc(N4CCOCC4)c3s2)CC1 [GDC-0941]	–	–	–	–	–	–	–	–	–	–	–	–	–	–	–	–	–	960	569	1070	5650	156	212	1540	990	882	709	2390	721	–
